From PubChem BioAssay AID1963864 (Molecular Pharmacology Branch, DTP, NCI, 2024)

Test system: KRAS PDC multicell spheroid viability
Assay: Anticancer human tumor 521955-158-R6-J3-PDC patient-derived pancreatic carcinoma cell line growth inhibition [KRAS2]
Conditions: for IC50: curve of first compound; for viability, T/C: stronger effect = lower value
Method in brief: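 KRAS-mutant tumor cells were grown as spheroids with HUVEC endothelial cells and human MSCs as stroma. Targeted agents were tested alone and with KRAS pathway inhibitors. Doses started at or near clinical Cmax, or 10 microM, descending half-log.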

[1] = second compound 0.1 µM, first compound 0.0316 µM
[2] = second compound 0.1 µM, first compound 0.1 µM
[3] = second compound 0.1 µM, first compound 0.316 µM
[4] = second compound 0.1 µM, first compound 1 µM
[5] = second compound 0.1 µM, first compound 3.16 µM
[6] = second compound 0.316 µM, first compound 0.0316 µM
[7] = second compound 0.316 µM, first compound 0.1 µM
[8] = second compound 0.316 µM, first compound 0.316 µM
[9] = second compound 0.316 µM, first compound 1 µM
[10] = second compound 0.316 µM, first compound 3.16 µM
[11] = second compound 1 µM, first compound 0.0316 µM
[12] = second compound 1 µM, first compound 0.1 µM
[13] = second compound 1 µM, first compound 0.316 µM
[14] = second compound 1 µM, first compound 1 µM
[15] = second compound 1 µM, first compound 3.16 µM
[16] = second compound 3.16 µM, first compound 0.0316 µM
[17] = second compound 3.16 µM, first compound 0.1 µM
[18] = second compound 3.16 µM, first compound 0.316 µM
[19] = second compound 3.16 µM, first compound 1 µM
[20] = second compound 3.16 µM, first compound 3.16 µM
[21] = second compound 10 µM, first compound 0.0316 µM
[22] = second compound 10 µM, first compound 0.1 µM
[23] = second compound 10 µM, first compound 0.316 µM
[24] = second compound 10 µM, first compound 1 µM
[25] = second compound 10 µM, first compound 3.16 µM
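Note: drug exposure lasted seven days.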
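Throughout, for viability, T/C: 100% = DMSO vehicle wells and lower means fewer viable cells.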

| Structure (SMILES) | IC50 (second compound 0.1 µM) [µM] | IC50 (second compound 0.316 µM) [µM] | IC50 (second compound 1 µM) [µM] | IC50 (second compound 3.16 µM) [µM] | IC50 (second compound 10 µM) [µM] | viability, T/C [1] [%] | viability, T/C [2] [%] | viability, T/C [3] [%] | viability, T/C [4] [%] | viability, T/C [5] [%] | viability, T/C [6] [%] | viability, T/C [7] [%] | viability, T/C [8] [%] | viability, T/C [9] [%] | viability, T/C [10] [%] | viability, T/C [11] [%] | viability, T/C [12] [%] | viability, T/C [13] [%] | viability, T/C [14] [%] | viability, T/C [15] [%] | other results |
| --- | --- | --- | --- | --- | --- | --- | --- | --- | --- | --- | --- | --- | --- | --- | --- | --- | --- | --- | --- | --- | --- |
| COC(=O)c1ccc2c(C(=Nc3ccc(N(C)C(=O)CN4CCN(C)CC4)cc3)c3ccccc3)c(O)[nH]c2c1 + COc1cc2nc(C)nc(NC(C)c3cc(N)cc(C(F)(F)F)c3)c2cc1OC1CCOC1 | 3.01 | 3.53 | 2.41 | 1.72 | < 0.0316 | 90 | 95.7 | 107 | 115 | 47.6 | 93.9 | 90.3 | 91.4 | 122 | 55.2 | 84 | 94.4 | 107 | 115 | 34.5 | viability, T/C (second compound 0.1 µM, first compound 10 µM): 0.24%; viability, T/C (second compound 0.316 µM, first compound 10 µM): 0.21%; viability, T/C (second compound 1 µM, first compound 10 µM): 1.78%; viability, T/C [16]: 75.8%; viability, T/C [17]: 75.5%; viability, T/C [18]: 108%; viability, T/C [19]: 101%; viability, T/C [20]: 4.81%; viability, T/C (second compound 3.16 µM, first compound 10 µM): 0.15%; viability, T/C [21]: 42%; viability, T/C [22]: 29.7%; viability, T/C [23]: 6.94%; viability, T/C [24]: 2.96%; viability, T/C [25]: 2.48%; viability, T/C (second compound 10 µM, first compound 10 µM): 0.99% |
| CC(=O)OC12COC1CC(O)C1(C)C(=O)C(O)C3=C(C)C(OC(=O)C(O)C(NC(=O)OC(C)(C)C)c4ccccc4)CC(O)(C(OC(=O)c4ccccc4)C21)C3(C)C (stereo not given) + CC1OCC2(CCN(c3cnc(Sc4ccnc(N)c4Cl)c(N)n3)CC2)C1N | > 3.16 | > 3.16 | > 3.16 | > 3.16 | > 3.16 | 65.4 | 74.1 | 76.1 | 95.5 | 114 | 84.2 | 72.5 | 74.9 | 87.8 | 108 | 83.4 | 69.7 | 78.6 | 96.7 | 114 | viability, T/C (second compound 0.1 µM, first compound 0.01 µM): 82.9%; viability, T/C (second compound 0.316 µM, first compound 0.01 µM): 83%; viability, T/C (second compound 1 µM, first compound 0.01 µM): 79.8%; viability, T/C (second compound 3.16 µM, first compound 0.01 µM): 88.7%; viability, T/C [16]: 86.6%; viability, T/C [17]: 87.3%; viability, T/C [18]: 94.4%; viability, T/C [19]: 106%; viability, T/C [20]: 109%; viability, T/C (second compound 10 µM, first compound 0.01 µM): 99.7%; viability, T/C [21]: 88.9%; viability, T/C [22]: 95%; viability, T/C [23]: 99%; viability, T/C [24]: 96.1%; viability, T/C [25]: 118% |
